Assay results: patent US9108921B2, “Therapeutic compounds and compositions” (AGIOS PHARMACEUTICALS, INC, priority 2014, dated 2015)

Assays:
PKR R510Q = PKR R510Q (Homo sapiens, UniProt P30613, R510Q); assay: PKR Mutant Assay, AC50 against PKR R510Q; assay type: biochemical; settings: mutant PKR R510Q enzyme
How it was run: (§1)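 Steps: compound added to wells, then reaction mix lacking ADP; 60 min room-temperature hold; ADP (0.22-1.65 mM) added to start; A340 monitored at room temperature via PEP/LDH/NADH coupling. Top final compound concentration 100 μM, 3-fold dilutions over 11 points.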

PKR R532W = PKR R532W (Homo sapiens, UniProt P30613, R532W); assay: PKR Mutant Assay, AC50 against PKR R532W; assay type: biochemical; settings: mutant PKR R532W enzyme
How it was run: as §1

PKR WT [1] = biological target: T1, PKR WT (Homo sapiens, UniProt P30613); assay: PKR WT cell based AC50 assay; settings: wild type PKR
PKR WT [2] = biological target: T1, PKR WT; assay: PKR WT enzymatic AC50 assay; assay type: biochemical; settings: wild type PKR
How it was run: as §1

T1 sequence (P30613 whole entry): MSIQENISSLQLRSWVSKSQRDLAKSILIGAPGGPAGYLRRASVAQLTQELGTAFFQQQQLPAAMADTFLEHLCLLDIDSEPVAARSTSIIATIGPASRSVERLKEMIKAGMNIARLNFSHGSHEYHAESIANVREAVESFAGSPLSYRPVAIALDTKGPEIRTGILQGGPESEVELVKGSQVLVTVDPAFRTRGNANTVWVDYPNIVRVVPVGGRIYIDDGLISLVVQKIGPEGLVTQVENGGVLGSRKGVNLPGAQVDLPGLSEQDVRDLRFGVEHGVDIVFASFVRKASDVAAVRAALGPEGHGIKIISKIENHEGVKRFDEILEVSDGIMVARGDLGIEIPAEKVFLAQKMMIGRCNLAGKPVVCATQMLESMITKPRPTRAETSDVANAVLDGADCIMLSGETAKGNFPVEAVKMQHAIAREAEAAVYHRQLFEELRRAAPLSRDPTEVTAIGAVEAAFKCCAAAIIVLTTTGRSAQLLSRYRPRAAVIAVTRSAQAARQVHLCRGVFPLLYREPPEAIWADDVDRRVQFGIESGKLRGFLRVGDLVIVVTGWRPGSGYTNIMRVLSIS
Chain of PKR R510Q (P30613 whole entry R510Q): as the sequence (P30613 whole entry) above, with R510Q counted along it
Chain of PKR R532W (P30613 whole entry R532W): as the sequence (P30613 whole entry) above, with R532W counted along it

| Structure (SMILES) | AC50 (PKR R510Q) | AC50 (PKR R532W) | AC50 (PKR WT [1]) | AC50 (PKR WT [2]) |
| --- | --- | --- | --- | --- |
| CC(C)CC1(O)CCN(C(=O)c2ccc(NS(=O)(=O)c3cccc4sc(N)nc34)cc2)CC1 [Compound 406, 2-amino-N-(4-(4-hydroxy-4-isobutylpiperidine-1-carbonyl)phenyl)benzo[d]thiazole-4-sulfonamide] | < 100 nM | < 100 nM | < 100 nM | < 100 nM |
| Cn1cc(C2(O)CCN(C(=O)c3ccc(NS(=O)(=O)c4cccc5scnc45)cc3)CC2)cn1 [Compound 411, N-[4-[4-hydroxy-4-(1-methylpyrazol-4-yl)piperidine-1-carbonyl]phenyl]benzothiazole-4-sulfonamide] | 101 to 1000 nM | < 100 nM | < 100 nM | 101 to 1000 nM |
| O=C(c1ccc(NS(=O)(=O)c2cccc3cccnc23)cc1)N1CCC(O)(Cc2ccccc2)CC1 [Compound 131, N-(4-(4-benzyl-4-hydroxypiperidine-1-carbonyl)phenyl)quinoline-8-sulfonamide] | < 100 nM | < 100 nM | < 100 nM | < 100 nM |
| O=C(c1ccc(NS(=O)(=O)c2cccc3cccnc23)cc1)N1CCC(O)(CC2CCC2)CC1 [Compound 124, N-(4-(4-(cyclobutylmethyl)-4-hydroxypiperidine-1-carbonyl)phenyl)quinoline-8-sulfonamide] | < 100 nM | < 100 nM | < 100 nM | < 100 nM |
| O=C(c1ccc(NS(=O)(=O)c2cccc3cccnc23)cc1)N1CCC(O)(c2ccccc2Cl)CC1 [Compound 122, N-(4-(4-(2-chlorophenyl)-4-hydroxypiperidine-1-carbonyl)phenyl)quinoline-8-sulfonamide] | < 100 nM | < 100 nM | < 100 nM | < 100 nM |
| Nc1nc2c(S(=O)(=O)Nc3ccc(C(=O)N4CCC(O)(c5cccc(F)c5F)CC4)cc3)cccc2s1 [Compound 422] | < 100 nM | < 100 nM | < 100 nM | < 100 nM |
| Cc1nc(F)ccc1C1(O)CCN(C(=O)c2ccc(NS(=O)(=O)c3cccc4cccnc34)cc2)CC1 [Compound 129, N-(4-(4-(6-fluoro-2-methylpyridin-3-yl)-4-hydroxypiperidine-1-carbonyl)phenyl)quinoline-8-sulfonamide] | < 100 nM | < 100 nM | < 100 nM | < 100 nM |
| O=C(c1ccc(NS(=O)(=O)c2cccc3cccnc23)cc1)N1CCC(O)(c2cc(F)ccc2Cl)CC1 [Compound 166] | 101 to 1000 nM | < 100 nM | < 100 nM | < 100 nM |
